Results reported in US8653086B2, “Naphthamides as anticancer agents” (Oregon Health & Science University, priority 2008, dated 2014).
Read-outs that look alike come from different tables or passages of the source.

Key:
[1] = tested on: CREB-mediated gene transcription; assay: CREB renilla luciferase reporter assay in HEK293T cells; format: cell-based; details: Homo sapiens, HEK-293T, forskolin 10 μM, read-out: CREB transcription inhibition IC50
Procedure: HEK293T cells in a 10-cm plate were transfected with pCRE-RLuc (6.0 μg) with Lipofectamine™ 2000 (Invitrogen, Carlsbad, Calif.) according to manufacturer's protocol. After 3 h, the transfected cells were collected and replated into a 96-well plate (4×10^4 cells/well). The cells were allowed to attach to the bottom of the wells for overnight, when compounds of different concentrations were added to the cells. Forskolin (final concentration of 10 μM, Alexis Biochemicals, San Diego, Calif.) was added 30 min after the addition of the compounds. The cells were then incubated at 37° C. for 4.5 h and the media were removed. The cells were then lysed in renilla luciferase lysis buffer (Promega, Madison, Wis.). To measure luciferase activity, five μL of the lysate was combined with 30 μL of coelenterazine (Nanolight, Pinetop, Ariz.) solution in PBS (10 μg/mL). The sample protein concentration was determined by Dye Reagent Concentrate (Bio-Rad, Hercules, Calif.). The luciferase activity was normalized to protein content in each well and expressed as RLU/μg protein.

HeLa cells = assay: HeLa cancer cell growth inhibition, MTT (Example 6); format: cell-based; details: Homo sapiens, 72-h incubation
Procedure: (§1) HeLa, A549, and MCF-7 cells, in a 96-well plate (1.0×10^5/well) were treated with different concentrations of the compounds for 72 h. Then the number of cells was quantified by incubating cells with MTT reagent (Sigma, 50 μg/mL) for 3 h. The reduced formazan product was solubilized in DMSO to be measured spectrophotometrically at 570 nm.

KIX-KID interaction = target: T1, KIX-KID interaction (Homo sapiens, UniProt Q92793); assay: In vitro renilla luciferase complementation assay; format: biochemical; details: 4° C., 24 h, read-out: KIX-KID interaction inhibition IC50
T1 construct: RLucC-KIX (15 ng) and KID-RLucN-containing cell lysates; made in house
T1 sequence (Q92793 587-666 limits assumed): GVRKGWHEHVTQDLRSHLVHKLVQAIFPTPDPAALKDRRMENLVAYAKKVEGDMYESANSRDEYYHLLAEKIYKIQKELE
Procedure: RLucC-KIX (15 ng) and KID-RLucN-containing cell lysates (0.5 mg) were mixed together in renilla luciferase lysis buffer (Promega, Madison, Wis.) in the presence of different concentrations of compounds. The final volume of the incubation mixture is 30 μL. The mixture was incubated at 4° C. for 24 h. Then renilla luciferase activity was measured by combining 5 μL of incubation mixture with 30 μL of coelenterazine solution in PBS (pH 7.4, 10 μg/mL).

MCF-7 cells = assay: MCF-7 cancer cell growth inhibition, MTT (Example 6); format: cell-based; details: Homo sapiens, MCF7, 72-h incubation
Procedure: as §1

A549 cells [2] = assay: A549 cancer cell growth inhibition, MTT (Example 6); format: cell-based; details: Homo sapiens, 72-h incubation
Procedure: as §1

primary rat neurons = tested on: primary rat neurons
Procedure: E18 rat neurons were isolated from Sprague-Dawley rats at 18 days after gestation. The isolated neurons were plated into a 6-well plate coated with poly-D-lysine. On day 5 after plating the neurons, different compounds of indicated concentrations were added (in triplicates) and incubated with the neurons for 48 h. Then the neurons were harvested and the number of live neurons was counted with a hemacytometer after staining with trypan blue. Data were presented as mean±SD.
CREB is a pleiotrophic factor involved in many different cellular processes including neuronal survival. The possibility of neuronal cell death might be a concern for CREB inhibitors in the future clinical applications if they could cross the blood brain barrier. Therefore, the toxicity of naphthol AS-E phosphate (i) or its active form, naphthol AS-E (ii), to primary rat neurons was investigated. Isolated E18 rat neurons were treated with increasing concentrations of naphthol AS-E phosphate (i) or naphthol AS-E (ii) for 48 h. […] At the end of the treatment, the neurons were collected and the number of live neurons were counted using trypan blue exclusion assay (FIG. 3).

[3] = tested on: CREB-mediated gene transcription; assay: CRE firefly luciferase reporter assay in HEK 293 cells; format: cell-based; details: forskolin 10 μM, normalized to renilla luciferase
Procedure: (§2) (A) Inhibitory effect of CREB-mediated gene transcription by compounds i and ii in HEK 293 cells. Cells were transiently transfected with a plasmid encoding firefly luciferase under the control of three iterative copies of CRE (pCRE-Luc). Compound i or ii was added to the transfected cells in triplicate 30 min prior to the addition of forskolin (Fsk, 10 μM). The luciferase activity was measured using Dual Luciferase Reagent (Promega) and normalized to the co-transfected renilla luciferase (pRL-SV40, Promega). (B) Exponentially growing A549 cells in a 6-well plate (1.5×10^5 cells/well) were treated increasing concentrations of compound i or ii in triplicate for 48 h. […] Data were presented as mean±SD.
In this assay, HEK 293 cells were transiently transfected with a luciferase reporter plasmid which expresses firefly luciferase under the control of three copies of CREB-response element (CRE). Additionally, an internal control plasmid constitutively expressing renilla luciferase was co-transfected to normalize transfection efficiency across the wells. The inhibition flirt-fly luciferase transcription seen in HEK 293 cells by compound i was not due to cell death because the firefly luciferase activity was normalized to renilla luciferase activity and the number of live cells after compound treatment was the same for all the different concentrations tested.

[4] = Hydrolysis of naphthol AS-E phosphate in tissue culture media (DMEM), HPLC
Procedure: (A) Representative HPLC chromatograms of aliquots of the incubation mixture containing naphthol AS-E phosphate (i, 500 μM), 1-naphthalenemethanol (1 mM) and DMEM with 10% FBS at different time points. […] 1-Naphthalenemethanol was included as an internal standard. The minor peaks on the chromatograms are components from DMEM, which contains various amino acids, vitamins and carbohydrates. (B) Time-dependent increases of naphthol AS-E during the hydrolysis of naphthol AS-E phosphate. The data were extracted from the experiment presented in (A). The concentration of naphthol AS-E was determined based on the calibration curve shown in (C).
Napthol AS-E phosphate was incubated with tissue culture media (Dulbecco's Modified Eagle Medium, DMEM) containing 10% fetal bovine serum (FBS) at 37° C. along with an internal standard, 1-naphthalenemethanol. The hydrolysis of napthol AS-E phosphate was then monitored by reverse phase HPLC at various time points.

A549 cells [5] = assay: A549 apoptosis, annexin-V/PI flow cytometry and PARP cleavage; format: cell-based, human; details: for percentage of cells undergoing apoptosis: 10 μM, 48 h, vehicle 6.3%; for cleavage of poly (ADP-ribose) polymerase (PARP): A549 cells treated with compound
Procedure: (§3) To investigate whether apoptosis was activated upon treatment, A549 cells were treated with either naphthol AS-E phosphate (i, 10 μM) or naphthol AS-E (ii, 10 μM) for 48 h. The cells were then analyzed by flow cytometry after staining with annexin-V and propidium iodide (PI). In this two-dye binding assay, annexin-V will bind phosphatidylserine exposed on the dying apoptotic cell surface while PI will only stain dead cells whose plasma-membrane integrity is compromised. This assay can discriminate intact cells (annexin^−/PI^−), apoptotic cells (annexin^+/PI^−) and necrotic or late apoptotic cells (annexin^+/PI^+).

A549 cells [6] = assay: A549 live cell count, trypan blue; format: cell-based, human; details: 48 h, live cells counted
Procedure: as §2, §3

[7] = E18 rat neurons, 48 h, naphthols up to 10 μM, CPT positive control

| Structure (SMILES) | IC50 [1] | GI50 (HeLa cells) | IC50 (KIX-KID interaction) | GI50 (MCF-7 cells) | GI50 (A549 cells [2]) | other results |
| --- | --- | --- | --- | --- | --- | --- |
| NCCCOc1cc(Cl)ccc1NC(=O)c1cc2ccccc2cc1OCCCN [drawing 54] | 22900 nM | 710 ± 210 nM | 14700 nM | 1690 ± 390 nM | 1840 ± 110 nM |  |
| O=C(Nc1ccc(Cl)cc1)c1cc2ccccc2cc1OP(=O)(O)O [naphthol AS-E phosphate] |  |  |  |  |  | neuronal cell death (primary rat neurons): no significant neuronal cell death; inhibition of CREB-mediated gene transcription [3]: strongly inhibited; hydrolysis of phosphate i to naphthol ii after 25-h incubation ([4]; DMEM with 10% FBS, 37° C.): complete hydrolysis; period of constant rate of increase of naphthol AS-E ([4]; DMEM with 10% FBS, initial zero-order kinetics): > 8.5 h; hydrolysis in tissue culture media without FBS ([4]; DMEM without FBS, 24 h): did not generate any hydrolysis product; percentage of cells undergoing apoptosis (A549 cells [5]): 22.7%; cleavage of poly (ADP-ribose) polymerase (PARP) (A549 cells [5]): detected; A549 cell proliferation (A549 cells [6]): inhibited A549 cell proliferation |
| NCCCOc1cc2ccccc2cc1C(=O)Nc1ccc(Cl)cc1OC(=O)c1cc2ccccc2cc1OCCCN [drawing 56] | 2740 nM | 290 ± 50 nM | 7080 nM | 420 ± 150 nM | 590 ± 20 nM |  |
| O=C(Nc1ccc(Cl)cc1)c1cc2ccccc2cc1O [drawing 53] | 2200 nM | 2970 ± 740 nM | 2410 nM | 2560 ± 450 nM | 4580 ± 1520 nM |  |
| CC[C@@]1(O)C(=O)OCc2c1cc1n(c2=O)Cc2cc3ccccc3nc2-1 [CPT, camptothecin] |  |  |  |  |  | neuronal cell death (primary rat neurons; [7]): killed most of the neurons |
| O=C(Nc1ccc(Cl)cc1)c1cc2ccccc2cc1O [naphthol AS-E] |  |  |  |  |  | neuronal cell death (primary rat neurons; [7]): no significant neuronal cell death; percentage of cells undergoing apoptosis (A549 cells [5]): 19.8%; cleavage of poly (ADP-ribose) polymerase (PARP) (A549 cells [5]): detected; A549 cell proliferation (A549 cells [6]): inhibited A549 cell proliferation |
| COc1cc2ccccc2cc1C(=O)Nc1ccc(Cl)cc1OC(=O)c1cc2ccccc2cc1OC [drawing 55] | 1140 nM | 330 ± 70 nM | 250 nM | 3380 ± 490 nM | 8780 ± 2550 nM |  |
